Experiments:
HGPS MSCs [1] = assay: Nuclear shape abnormalities (lamin A/C immunostaining); type: cell-based, human; details: 48 h, lamin A/C staining
Procedure: In the 4-steps protocol, cells were fixed in 4% paraformaldehyde (15 minutes, room temperature) before permeabilization and blocking in PBS supplemented with 0.1% triton X-100 and 1% BSA (Sigma-Aldrich, St. Louis, USA). Primary antibodies were incubated one hour at room temperature in blocking buffer. Antibodies included mouse anti-lamins A/C (clone JOL2, Millipore, Billerica, USA), rabbit anti-prelamin A (ANTOO45, Diatheva) and anti-Ki67 (clone Ki-S5, MAB4190, Millipore, Billerica, USA). Cells were stained with the species-specific fluorophore-conjugated secondary antibody (Invitrogen) (one hour, room temperature) and nuclei were visualized with Hoechst 33342.

HGPS MSCs [2] = assay: Osteogenic differentiation (alkaline phosphatase activity); type: cell-based, human; details: 7 days of osteogenic differentiation
Procedure: MSC were seeded at 600 cells per well in 384 well plate in MSC culture medium and treated as previously described. After 72 hours, MSC medium was replaced by STEMPRO osteogenic induction medium (Invitrogen) in presence or not of the different drugs. After 7 days of treatment, cells were fixed with ethanol 95% and stained by adding either a colorimetric substrate of the alkaline phosphatase, the 5-Bromo-4-chloro-3-indolyl phosphate/Nitro blue tetrazolium (NBT) (Sigma-Aldrich) or a chromogenic substrate of this enzyme (absorbance at 405 nm), the p-Nitrophenyl Phosphate (pNPP) (Pierce Biotechnology).

FT = molecular target: T1, FT (Homo sapiens, UniProt P49354+P49356); assay: FT activity assay (Farnesyltransferase [3H] SPA); type: biochemical; details: concentration inducing 50% of the maximum inhibiting effect of the compound
T1 construct: Reactions were started by adding 40 μL of treated or untreated cell lysate; endogenous in cells; host or cells: HGPS MSCs (cell lysate)
Procedure: Cell pellet of HGPS MSCs were resuspended in 25 mM Tris-HCl pH 7.4, 1 mM DTT, 1 mM MgCl2, 1 EDTA, 1 mM PMSF and centrifuged at 10,000×g for 10 min at 4° C. Protein content was determined using Lowry's method. Aliquots of cell lysate containing 100 μg of total proteins were incubated with tested substances at 37° C. for 30 min.
FT activity was determined by Famesyltransferase [3H] SPA enzyme assay (Amersham Life Science, Buckinghamshire, England). Briefly, FT activity was assayed in 20 μl of assay buffer containing 50 mmol/L Hepes, 30 mmol/L MgCl2, 20 mmol/L KCl and 5 mmol/L dithiothreitol, 20 μl of [3H]-FPP (12 pmol) and 20 μl of biotin lamin B. Reactions were started by adding 40 μL of treated or untreated cell lysate and incubated for 1 hour at 37° C. Reactions were stopped by the addition of 150 μL of stop reagent containing SPA bead and counted in a scintillation counter. FT activity was expressed as pmoles of incorporated [3H]-FPP into biotin lamin-B peptide per minute per milligram of total proteins (pmol/min/mg prot). Parallel samples were assayed to evaluate the total and the nonspecific radioactivity. In all experiments enzyme assays were carried out in triplicate.

HGPS MSCs [3] = assay: Live cell imaging (cell density); type: cell-based, human; details: 7 days
Procedure: HGPS MSCs were seeded at 2500 cells per well in 96-well plates and cultivated during 7 days in presence of the drugs. Cell density was monitored using an IncuCyte ZOOM microscope (Essen Bioscience). Each value corresponds to the mean of cell densities of four pictures taken in three independent wells.

prelamin A = assay: Western immunoblotting of prelamin A; type: cell-based, human; details: HGPS MSCs, optimal concentration
Procedure: Whole-cell lysates of MSC were collected, separated by SDS-PAGE, and transferred onto PVPF membrane by liquid transfer method. Blots were blocked in 10% skim milk (Bio-Rad) in tween 0.1% tris-buffered saline (TTBS) 1× one hour at room temperature. The primary antibodies used were a mouse anti-lamins A/C 1:200 (Millipore, JOL2), a rabbit anti-prelamin A 1/100 (ANTOO45, Diatheva) and a β-actin 1/200000 (Sigma). Membranes were incubated during the night at 4° C. Antigen-antibody binding was detected using horseradish peroxidaseconjugated species-specific secondary antibodies (GE-Healthcare, Little Chalfont, UK) followed by enhanced chemiluminescence Western blotting detection reagents (Perkin-Elmer, Waltham, USA).

HMGCR = molecular target: T2, HMGCR (Homo sapiens, UniProt P04035); assay: HMGCR colorimetric activity assay; type: biochemical
T2 construct: oxidation of NADPH by the catalytic subunit of HMGCR in the presence of the substrate HMG CoA; purchased Sigma-Aldrich
T2 sequence (P04035 340-888 limits assumed): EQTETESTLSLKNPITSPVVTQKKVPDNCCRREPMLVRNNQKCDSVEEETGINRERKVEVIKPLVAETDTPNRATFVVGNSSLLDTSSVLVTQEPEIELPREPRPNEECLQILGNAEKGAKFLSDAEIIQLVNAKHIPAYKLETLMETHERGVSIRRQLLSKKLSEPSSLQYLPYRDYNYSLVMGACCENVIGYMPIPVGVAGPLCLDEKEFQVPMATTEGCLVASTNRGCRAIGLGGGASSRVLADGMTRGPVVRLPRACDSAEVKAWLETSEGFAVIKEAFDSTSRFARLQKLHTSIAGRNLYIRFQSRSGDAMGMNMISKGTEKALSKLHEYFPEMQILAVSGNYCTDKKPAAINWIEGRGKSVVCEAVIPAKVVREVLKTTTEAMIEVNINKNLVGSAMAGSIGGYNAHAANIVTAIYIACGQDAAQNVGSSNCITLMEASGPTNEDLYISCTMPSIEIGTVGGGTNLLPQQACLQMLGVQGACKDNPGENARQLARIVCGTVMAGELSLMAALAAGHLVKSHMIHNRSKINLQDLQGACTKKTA
Procedure: HMGCR activity was measured using GCoA Reductase Assay Kit (Sigma-Aldrich) according to the manufacturer's protocol. The assay is based on the spectrophotometric measurement of the decrease in absorbance at 340 nm, which represents the oxidation of NADPH by the catalytic subunit of HMGCR in the presence of the substrate HMG CoA.

HDJ2 = assay: Western blot analysis of HDJ2 farnesylation; type: cell-based, human

IC50 (FT): 3.46 µM | IC50 (μM) HMGCR (HMGCR): No inhibition
SMILES: N#CC(c1ccccn1)c1ccnc(N2CCN(Cc3ccccc3F)CC2)n1 (stereo not shown) [Mono-AP1, {2-[4-(2-fluoro-benzyl)-piperazin-1-yl]-pyrimidin-4-yl}-pyridin-2-yl-acetonitrile]
rescue of nuclear shape abnormalities (HGPS MSCs [1]): restoring HGPS MSCs nuclear shape defects at levels not significantly different from the FTI tipifarnib | rescue of premature osteogenic differentiation (alkaline phosphatase activity) (HGPS MSCs [2]): not significantly different to those observed following FTI treatment | cytostatic effect in long term live imaging cultures (HGPS MSCs [3]): less cytostatic than the FTI tipifarnib | prelamin A level (Western blot) (prelamin A): increased | unfarnesylated form of HDJ2 (HDJ2): increase of the unfarnesylated form of the protein
